Results: PubChem BioAssay AID192 (DTP/NCI, 2004)
Where “and” joins values, the source holds several entries; their conditions need not be identical. Equal values may be shown once. Toxic doses and inconclusive results are not listed.

Tested on: BDF1 mice, B16 melanoma ip, median survival T/C
Test: NCI In Vivo Anticancer Drug Screen. Data for tumor model B16 Melanoma (intraperitoneal) in B6D2F1 (BDF1) mice
Details: endpoint: median survival time, higher = longer survival
How it was run: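 Read-out: survival or tumor size, given as treated/control ratio. Controls received vehicle only; animals bore transplantable tumors.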

[1] = dose: 6.25 mg/kg/injection, schedule: Q01DX009 (ip), vehicle: saline
[2] = dose: 12.5 mg/kg/injection, schedule: Q01DX009 (ip), vehicle: saline
[3] = dose: 25.0 mg/kg/injection, schedule: Q01DX009 (ip), vehicle: saline
[4] = dose: 25.0 mg/kg/injection, schedule: Q04DX003 (ip), vehicle: saline
[5] = dose: 50.0 mg/kg/injection, schedule: Q04DX003 (ip), vehicle: saline
[6] = dose: 25.0 mg/kg/injection, schedule: Q01DX009 (ip), vehicle: saline with Tween-80
[7] = dose: 50.0 mg/kg/injection, schedule: Q01DX009 (ip), vehicle: saline with Tween-80
[8] = dose: 100.0 mg/kg/injection, schedule: Q01DX009 (ip), vehicle: saline with Tween-80
[9] = dose: 1.56 mg/kg/injection, schedule: Q01DX009 (ip), vehicle: saline
[10] = dose: 3.13 mg/kg/injection, schedule: Q01DX009 (ip), vehicle: saline
[11] = dose: 50.0 mg/kg/injection, schedule: Q01DX009 (ip), vehicle: saline
[12] = dose: 100.0 mg/kg/injection, schedule: Q01DX009 (ip), vehicle: saline
[13] = dose: 12.5 mg/kg/injection, schedule: Q01DX009 (ip), vehicle: Klucel (hydroxypropylcellulose) (HPC)
[14] = dose: 25.0 mg/kg/injection, schedule: Q01DX009 (ip), vehicle: Klucel (hydroxypropylcellulose) (HPC)
[15] = dose: 50.0 mg/kg/injection, schedule: Q01DX009 (ip), vehicle: Klucel (hydroxypropylcellulose) (HPC)
[16] = dose: 100.0 mg/kg/injection, schedule: Q01DX009 (ip), vehicle: Klucel (hydroxypropylcellulose) (HPC)
[17] = dose: 200.0 mg/kg/injection, schedule: Q01DX009 (ip), vehicle: Klucel (hydroxypropylcellulose) (HPC)
[18] = dose: 400.0 mg/kg/injection, schedule: Q01DX009 (ip), vehicle: Klucel (hydroxypropylcellulose) (HPC)
[19] = dose: 100.0 mg/kg/injection, schedule: Q04DX003 (ip), vehicle: Klucel (hydroxypropylcellulose) (HPC)
[20] = dose: 200.0 mg/kg/injection, schedule: Q04DX003 (ip), vehicle: Klucel (hydroxypropylcellulose) (HPC)

## C=C(C)[C@]12CC(C)C34OC(/C=C\C=C\CCCCCCCCC)(O[C@@H]1[C@@H]3[C@@H]1O[C@]1(CO)[C@@H](O)[C@]1(O)C(=O)C(C)=C[C@@H]41)O2 (stereo not given in full)
dose: 0.09 mg/kg/injection, schedule: Q01DX009 (ip), vehicle: alcohol
  T/C: 88 % of control
dose: 0.18 mg/kg/injection, schedule: Q01DX009 (ip), vehicle: saline + alcohol
  T/C: 98 % of control
dose: 0.19 mg/kg/injection, schedule: Q01DX009 (ip), vehicle: alcohol
  T/C: 88 % of control
dose: 0.37 mg/kg/injection, schedule: Q01DX009 (ip), vehicle: saline + alcohol
  T/C: 89 % of control

## CC1CN1P(=O)(N1CC1C)N1CC1C (stereo not given)
[1]
  T/C: 120 % of control
[2]
  T/C: 100 % of control and 112 % of control
[3]
  T/C: 113 % of control
[4]
  T/C: 113 % of control
[5]
  T/C: 120 % of control
dose: 100.0 mg/kg/injection, schedule: Q04DX003 (ip), vehicle: saline
  T/C: 93 % of control

## O=C(O)c1ccc(C(Cl)(Cl)Cl)cc1
[6]
  T/C: 105 % of control
[7]
  T/C: 103 % of control
[8]
  T/C: 98 % of control

## O=C1C(Br)=C(Br)C(=O)C1(Br)Br
[9]
  T/C: 100 % of control
[10]
  T/C: 105 % of control
dose: 3.13 mg/kg/injection, schedule: Q04DX003 (ip), vehicle: saline with Tween-80
  T/C: 94 % of control
[1]
  T/C: 102 % of control
dose: 6.25 mg/kg/injection, schedule: Q04DX003 (ip), vehicle: saline with Tween-80
  T/C: 89 % of control

## Oc1cc2c(cc1O)[C@H]1c3ccc(O)c(O)c3OC[C@@]1(O)C2
[3]
  T/C: 100 % of control
[11]
  T/C: 102 % of control
[12]
  T/C: 103 % of control
dose: 200.0 mg/kg/injection, schedule: Q01DX009 (ip), vehicle: saline
  T/C: 108 % of control
dose: 400.0 mg/kg/injection, schedule: Q01DX009 (ip), vehicle: saline
  T/C: 103 % of control

## O=c1[nH]c(=O)n([C@H]2CCCO2)cc1F
dose: 3.12 mg/kg/injection, schedule: Q01DX009 (ip), vehicle: saline
  T/C: 86 % of control
[13]
  T/C: 98 % of control
[2]
  T/C: 86 % of control
[14]
  T/C: 94 % of control
[3]
  T/C: 100 % of control
[15]
  T/C: 97 % of control
[11]
  T/C: 95 % of control
[16]
  T/C: 102 % of control
[12]
  T/C: 102 % of control and 104 % of control

## c1ccc(COc2ccc(Nc3ccccc3)cc2)cc1
[16]
  T/C: 106 % of control
[17]
  T/C: 109 % of control
[18]
  T/C: 112 % of control

## CCCCN(C)N=Nc1ccc(CCCC(=O)OCC)cc1
[9]
  T/C: 97 % of control
[10]
  T/C: 100 % of control
[1]
  T/C: 100 % of control

## COc1ccc2c(c1)C/C(=N\O)C2=O
[6]
  T/C: 99 % of control
[7]
  T/C: 114 % of control
[8]
  T/C: 92 % of control

## COc1ccc2c(ccc[n+]2C)c1
[1]
  T/C: 93 % of control
[2]
  T/C: 90 % of control
dose: 12.5 mg/kg/injection, schedule: Q04DX003 (ip), vehicle: saline
  T/C: 100 % of control
[3]
  T/C: 95 % of control
[4]
  T/C: 100 % of control
[5]
  T/C: 104 % of control

## COC(=O)C(C#N)=C(C)C
dose: 10.0 mg/kg/injection, schedule: Q01DX009 (ip), vehicle: saline with Tween-80
  T/C: 100 % of control
dose: 20.0 mg/kg/injection, schedule: Q01DX009 (ip), vehicle: saline with Tween-80
  T/C: 98 % of control
dose: 40.0 mg/kg/injection, schedule: Q01DX009 (ip), vehicle: saline with Tween-80
  T/C: 94 % of control

## CC(C)(C)OC(=O)NC(CCC(=O)OCc1ccccc1)C(=O)ON1C(=O)CCC1=O (stereo not given)
[7]
  T/C: 95 % of control
[8]
  T/C: 90 % of control

## COc1cccc2c1C(=O)c1c(O)c3c(c(O)c1C2=O)CC(O)(C(C)=O)CC3O (stereo not given)
dose: 0.12 mg/kg/injection, schedule: Q01DX009 (ip), vehicle: saline
  T/C: 91 % of control
dose: 0.12 mg/kg/injection, schedule: Q04DX003 (ip), vehicle: saline
  T/C: 94 % of control
dose: 0.25 mg/kg/injection, schedule: Q04DX003 (ip), vehicle: saline
  T/C: 100 % of control
dose: 0.5 mg/kg/injection, schedule: Q01DX009 (ip), vehicle: saline
  T/C: 86 % of control
dose: 0.5 mg/kg/injection, schedule: Q04DX003 (ip), vehicle: saline
  T/C: 105 % of control
dose: 1.0 mg/kg/injection, schedule: Q01DX009 (ip), vehicle: saline
  T/C: 94 % of control
dose: 1.0 mg/kg/injection, schedule: Q04DX003 (ip), vehicle: saline
  T/C: 97 % of control
dose: 2.0 mg/kg/injection, schedule: Q01DX009 (ip), vehicle: saline
  T/C: 102 % of control
dose: 2.0 mg/kg/injection, schedule: Q04DX003 (ip), vehicle: saline
  T/C: 102 % of control
dose: 4.0 mg/kg/injection, schedule: Q01DX009 (ip), vehicle: saline
  T/C: 100 % of control
dose: 4.0 mg/kg/injection, schedule: Q04DX003 (ip), vehicle: saline
  T/C: 108 % of control
dose: 8.0 mg/kg/injection, schedule: Q01DX009 (ip), vehicle: saline
  T/C: 105 % of control

## NCCc1ccc(S(=O)(=O)O)cc1[N+](=O)[O-]
dose: 50.0 mg/kg/injection, schedule: Q01DX009 (ip), vehicle: carboxymethylcellulose (CMC)
  T/C: 96 % of control
dose: 100.0 mg/kg/injection, schedule: Q01DX009 (ip), vehicle: carboxymethylcellulose (CMC)
  T/C: 86 % of control
dose: 200.0 mg/kg/injection, schedule: Q01DX009 (ip), vehicle: carboxymethylcellulose (CMC)
  T/C: 89 % of control

## Nc1nc(SCc2ccccc2)c2[nH]cnc2n1
dose: 3.13 mg/kg/injection, schedule: Q01DX009 (ip), vehicle: saline sonified
  T/C: 95 % of control
dose: 6.25 mg/kg/injection, schedule: Q01DX009 (ip), vehicle: saline sonified
  T/C: 100 % of control
dose: 12.5 mg/kg/injection, schedule: Q01DX009 (ip), vehicle: saline sonified
  T/C: 93 % of control
dose: 25.0 mg/kg/injection, schedule: Q01DX009 (ip), vehicle: saline sonified
  T/C: 97 % of control

## CC[P+](CC)(CC)c1ccccc1
[1]
  T/C: 101 % of control
[2]
  T/C: 110 % of control
[3]
  T/C: 111 % of control

## CC1(C)C2CCC1(C)C(COC(=O)c1cc([N+](=O)[O-])cc([N+](=O)[O-])c1)C2 (stereo not given)
[16]
  T/C: 96 % of control
[17]
  T/C: 93 % of control
[18]
  T/C: 87 % of control

## CCCCCCCCCc1ccc(OC(=O)CCC)cc1
[13]
  T/C: 106 % of control
[14]
  T/C: 94 % of control
[18]
  T/C: 87 % of control

## Cc1ccccc1NC(=S)N(C)C
dose: 6.25 mg/kg/injection, schedule: Q04DX003 (ip), vehicle: Klucel (hydroxypropylcellulose) (HPC)
  T/C: 96 % of control
dose: 12.5 mg/kg/injection, schedule: Q04DX003 (ip), vehicle: Klucel (hydroxypropylcellulose) (HPC)
  T/C: 100 % of control
dose: 25.0 mg/kg/injection, schedule: Q04DX003 (ip), vehicle: Klucel (hydroxypropylcellulose) (HPC)
  T/C: 88 % of control and 100 % of control

## Cc1ccc(N=Nc2c(O)ccc3ccccc23)c(C)c1
[15]
  T/C: 92 % of control
[18]
  T/C: 150 % of control

## Cc1cccc(C)c1NC(=O)C(C)C
[8]
  T/C: 100 % of control
dose: 200.0 mg/kg/injection, schedule: Q01DX009 (ip), vehicle: saline with Tween-80
  T/C: 102 % of control
dose: 400.0 mg/kg/injection, schedule: Q01DX009 (ip), vehicle: saline with Tween-80
  T/C: 95 % of control

## O=C(/C=C/c1cccc2ccccc12)c1ccc(Cl)cc1
[15]
  T/C: 92 % of control
dose: 50.0 mg/kg/injection, schedule: Q04DX003 (ip), vehicle: Klucel (hydroxypropylcellulose) (HPC)
  T/C: 103 % of control
[16]
  T/C: 96 % of control
[19]
  T/C: 100 % of control
[17]
  T/C: 92 % of control
[20]
  T/C: 93 % of control

## Cc1cc(C)cc(OC(=O)Nc2ccccc2Cl)c1
[19]
  T/C: 96 % of control
[20]
  T/C: 96 % of control
dose: 400.0 mg/kg/injection, schedule: Q04DX003 (ip), vehicle: Klucel (hydroxypropylcellulose) (HPC)
  T/C: 106 % of control

## N=C(N)c1ccc(N=NNc2ccc(C(=N)N)cc2)cc1
dose: 12.5 mg/kg/injection, schedule: Q01DX009 (ip), vehicle: saline with Tween-80
  T/C: 101 % of control
[6]
  T/C: 112 % of control
[7]
  T/C: 114 % of control
